The source of these data is US20220133846A1, “NOVEL ANTIMICROBIAL COMPOUND AND USES THEREOF” (priority 2019, published 2022).

Converted amounts (≈) assume the structure as drawn. “And” between values parts separate entries of the source, which are not always exact repeats. Equal entries are not always repeated. Where two headings read alike, the source gives them in different places.

Test [1] deals with Acinetobacter calcoaceticus. Description: MIC against clinical isolates (Christiana Hospital). The class given is cell-based. As to conditions: clinical strain CH37, drug resistance N.
The subject of another test is Acinetobacter ursingii. Described as above. The format is cell-based. As to conditions: clinical strain CH41, drug resistance N.
In the next test the test system is Acinetobacter guillouiae. The description is as above. The class given is cell-based. As to conditions: clinical strain CH42, drug resistance N.
The test system of a further test is Acinetobacter modestus. Described as above. The class given is cell-based. The note with it: clinical strain CH43, drug resistance N.
The test system of another test is Acinetobacter septicus. The description is as above. The format is cell-based. As to conditions: clinical strain CH44, drug resistance N.
The subject of test [2] is Acinetobacter baumannii. Description: microbe, parasite or virus in culture.
Test [3] concerns broad spectrum of Gram-positive bacteria. The note with it: cited from earlier work.
Test [4] has as its system S. aureus (SA) and MRSA biofilms. The class given is cell-based.
Test [5] concerns S. aureus NRS 384 (USA300-0114). The test can be described thus: Murine neutropenic thigh infection model. The class given is in vivo, mice. As to conditions: 25 mg/kg, both studies.
The test system of a further test is A. baumannii (CH-46). The test can be described thus: Frequency of resistance (FoR) in vitro. The format is cell-based.
The test system of test [6] is Acinetobacter baumannii.
The next test deals with S. aureus. The test can be described thus: Prevention of biofilm formation by pre-coating wells. The class given is cell-based. The note with it: data not shown.

For the molecule `C[C@@H](O)[C@H]1C(=O)N2C(C(=O)O)=C(SCCN=CN)C[C@H]12` [Imipenem], the MIC was 0.5 µg/mL (≈ 1.67 µM) in test [1] (Acinetobacter calcoaceticus, read-out: MIC); 1 µg/mL (≈ 3.34 µM) in the test with Acinetobacter ursingii (Acinetobacter ursingii, read-out: MIC); 7.81 µg/mL (≈ 26.1 µM) with Acinetobacter guillouiae (Acinetobacter guillouiae, read-out: MIC); 0.5 µg/mL (≈ 1.67 µM) with Acinetobacter modestus (Acinetobacter modestus, read-out: MIC); 1.46 µg/mL (≈ 4.88 µM) with Acinetobacter septicus (Acinetobacter septicus, read-out: MIC); 250 µg/mL (≈ 835 µM) against Acinetobacter baumannii [2] (clinical strain CH36, drug resistance N). In addition, the MIC against Acinetobacter baumannii [2] (clinical strain CH38, drug resistance N) was 125 µg/mL (≈ 418 µM); in the test on Acinetobacter baumannii [2] (clinical strain CH39, drug resistance N), 15.6 µg/mL (≈ 52.2 µM); with Acinetobacter baumannii [2] (clinical strain CH40, drug resistance N) it was 31.2 µg/mL (≈ 104 µM); with Acinetobacter baumannii [2] (clinical strain CH45, drug resistance Y), 125 µg/mL (≈ 418 µM); in the test on Acinetobacter baumannii [2] (clinical strain CH46, drug resistance Y) it was 250 µg/mL (≈ 835 µM); in the test on Acinetobacter baumannii [2] (clinical strain CH47, drug resistance Y), 3.91 µg/mL (≈ 13.1 µM). Also, the MIC was 7.81 µg/mL (≈ 26.1 µM) against Acinetobacter baumannii [2] (clinical strain CH48, drug resistance Y); 62.5 µg/mL (≈ 209 µM) with Acinetobacter baumannii [2] (clinical strain CH49, drug resistance Y); 62.5 µg/mL (≈ 209 µM) against Acinetobacter baumannii [2] (clinical strain CH50, drug resistance Y); 31.2 µg/mL (≈ 104 µM) in the test on Acinetobacter baumannii [2] (clinical strain CH51, drug resistance Y); 31.2 µg/mL (≈ 104 µM) against Acinetobacter baumannii [2] (clinical strain CH52, drug resistance Y); 31.2 µg/mL (≈ 104 µM) in the test on Acinetobacter baumannii [2] (clinical strain CH53, drug resistance Y). In addition, the MIC was found to be 7.81 µg/mL (≈ 26.1 µM) against Acinetobacter baumannii [2] (clinical strain CH54, drug resistance Y) and 46.9 µg/mL (≈ 157 µM) in the test on Acinetobacter baumannii [2] (clinical strain CH55, drug resistance Y).

Regarding `C=C1NC(=O)CC[C@@H](C(=O)O)NC(=O)[C@H](NC(=O)[C@H](CCCCN)NC(=O)[C@@H](N)Cc2c[nH]c3ccccc23)CSC[C@@H](C(=O)N[C@@H]2C(=O)N3CCC[C@H]3C(=O)NCC(=O)N[C@H](C(=O)N[C@H](C(=O)N[C@@H]3C(=O)NCC(=O)N[C@@H](C)C(=O)N[C@@H](CC(C)C)C(=O)N[C@@H](CCC(N)=O)C(=O)N/C(=C/C)C(=O)N[C@H](C(=O)N[C@@H](Cc4ccccc4)C(=O)N[C@@H](CC(C)C)C(=O)N[C@@H](CCC(N)=O)C(=O)N[C@@H]4C(=O)N[C@@H](CC(C)C)C(=O)N[C@H]5C(=O)N[C@@H](CSC4C)C(=O)NC(=O)[C@H](CC(N)=O)N[C@H](C(=O)N[C@@H](CCCCN)C(=O)N[C@H](C(=O)NC(=C)C(=O)N[C@@H](CCCCN)C(=O)O)[C@@H](C)CC)CSC5C)CSC3C)C(C)C)CSC2C)N[C@@H](CC(C)C)C(=O)NC1=O` (some centres unmarked) [subtilin], the Antimicrobial activity result in test [3] is reported as “nanomolar range”.

In the case of `CN[C@H](CC(C)C)C(=O)N[C@H]1C(=O)N[C@@H](CC(N)=O)C(=O)N[C@H]2C(=O)N[C@H]3C(=O)N[C@H](C(=O)N[C@H](C(=O)O)c4cc(O)cc(O)c4-c4cc3ccc4O)[C@H](O)c3ccc(c(Cl)c3)Oc3cc2cc(c3O[C@@H]2O[C@H](CO)[C@@H](O)[C@H](O)[C@H]2O[C@H]2C[C@](C)(N)[C@H](O)[C@H](C)O2)Oc2ccc(cc2Cl)[C@H]1O` [vancomycin, reference compound], the “Effect on viability of pre-formed biofilm” value in test [4] is “not effective”. In addition, the “Bacterial load relative to pre-treatment levels” value in test [5] is “reduced bacterial load to or below pre-treatment levels”.

As to Colistin, the MIC in test [1] is 3.91 µg/mL; against Acinetobacter ursingii, 1.95 µg/mL; with Acinetobacter guillouiae, 3.91 µg/mL; in the test on Acinetobacter modestus it was 7.81 µg/mL; in the test with Acinetobacter septicus, 1.95 µg/mL; with Acinetobacter baumannii [6] it was 3.91 µg/mL and 5.86 µg/mL and 7.81 µg/mL. Besides, the “Frequency of resistance (FoR)” value is recorded as 2.7 × 10^−7 in the test on A. baumannii (CH-46) (2X MIC); 3.7 × 10^−8 with A. baumannii (CH-46) (3X MIC); 5.2 × 10^−8 with A. baumannii (CH-46) (4X MIC); 5.4 × 10^−8 in the test with A. baumannii (CH-46) (5X MIC); 2.0 × 10^−9 with A. baumannii (CH-46) (10X MIC).

B1: platelet factor 4: a control cationic peptide (protein, UniProt P02776 32-101, looked up)
Platelet factor 4: EAEEDGDLQCLCVKTTSQVRPRHITSLEVIKAGPHCPTAQLIATLKNGRKICLDLQAPLYKKIIKKLLES
Consider B1, for which the “Effect of coating wells on S. aureus attachment” value in the test on S. aureus is “no effect”.
